# Read-outs that look alike come from different tables or passages of the source.
# Tests used:
# [1] = test system: liver; test: Peroxisome proliferator induced liver transduction by beta galactosidase vector, XGAL staining; type: in vivo, Balb/C mice
# Description: On day 4, 200 ul beta galactosidase retroviral vector (1E9 cfu/ml, DA-Bengal) was injected via tail vein. On day 7, the mice were sacrificed, tissues were fixed in 2% formaldehyde/PBS for 24 hr, and blocked into slices of 2-5 mm. Sections were rinsed in PBS and stained in fresh XGAL solution (5 mM potassium ferricyanide/5 mM potassium ferrocyanide/2 mM MgCl2/0.5mg/ml XGAL in DMF (Gold Scientific)/1×PBS). Tissue was embedded in paraffin (−50 degrees), sectioned at 5 microns (PML, San Diego), and counterstained with Hematoxylin/Eosin.
# [2] = test system: CT26 beta-gal cells; test: Effect of ganciclovir on CT26 beta-gal cells, cell counts; type: cell-based, mouse
# Description: (§1) One plate of each cell type was left untreated.
# [3] = test system: CT26TK Neo cells; test: Effect of ganciclovir on CT26TK Neo cells (TK-3 transduced), cell counts; details: lowest dose 6.25 μg/ml, twice per day for four consecutive days
# Description: CT26 cells are transduced with G-pseudotyped TK-3 vector. Twenty-four hours after adding the viral supernatant, the CT26 cells are placed under G-418 selection (450 µg/ml). After 10 days incubation, a G-418 selected pool is obtained and designated CT26TK Neo. CM26 TK Neo cells were seeded into six 10 cm^2 plates at a density of 2.5×10^6 per plate. As controls, each of two other cell types, CT26 and CT26 beta-gal (this cell line was transduced with a retroviral vector carrying the reporter gene β-galactosidase from E. coli.), were also seeded into six 10 cm^2 plates as controls. Five plates of each cell type were treated twice per day for four consecutive days with medium containing ganciclovir concentrations of 100 μg/ml, 50 μg/ml, 25 μg/ml, 12.5 μg/ml and 6.25 μg/ml. One plate of each cell type was left untreated. Afterwards, the cells were removed from each dish using trypsin-EDTA, resuspended in DMEM with 10% FBS and counted.
# [4] = test system: CT26; test: Ganciclovir on in vivo tumor growth of unmodified CT26; design: species or system mice; details: 62.5 mg/Kg I.P. twice daily, S.C. tumor
# Description: (§2) In order to determine whether ganciclovir has an effect on the growth of unmodified CT26 tumor cells in vivo, 2 groups of 7 mice are injected S.C. with 2×10^5 unmodified CT26 cells and 2 groups of 7 mice are injected S.C. with 2×10^5 CT26TK Neo cells. Seven days after tumor implantation, one group of CT26 injected mice and one group of CT26TK Neo injected mice are placed on a twice daily (AM and PM) regimen of I.P. ganciclovir at 62.5 mg/Kg. These mice are treated for 12 days or until the CT26TK Neo injected animals have no detectable tumor burden. Tumor growth is monitored over a three week period.
# [5] = test system: CT26TK Neo; test: Ganciclovir on in vivo tumor growth of CT26TK Neo; design: species or system mice; details: 62.5 mg/Kg I.P. twice daily, S.C. tumor
# Description: as §2
# [6] = Ganciclovir toxicity in the mouse dose study; type: in vivo, mice
# [7] = test system: CT26 cells; test: Effect of ganciclovir on unmodified CT26 cells, cell counts; type: cell-based, mouse
# Description: as §1
# [8] = test system: CT26TK Neo; test: Ganciclovir dose study in mice injected with CT26TK Neo cells (tumor regression); type: in vivo
# Description: In order to test whether in vivo transduction of a murine tumor could be used to treat the disease, an experiment was performed to determine the optimal concentration of ganciclovir necessary to eliminate a tumor that was transduced and selected in vitro to assure 100% transduction. Twelve groups of 3 mice each are injected with 2×10^5 CT26TK Neo cells. Six groups of mice are injected with these cells intraperitoneally (I.P.) and six groups of mice are injected subcutaneously (S.C.). Two other groups of 3 mice each are injected with 2×10^5 unmodified CT26 cells (as a control) either I.P. or S.C.
# Ten days after the injection of the CT26 or CT26TK Neo cells into these groups of mice, several concentrations of ganciclovir treatment are initiated. Each dose regimen consists of 2 daily AM and PM I.P. injections of ganciclovir.
# Tumor measurements were made for 23 days FIG. 11). CT26TK Neo grew only slightly slower than unmodified CT26 in the absence of ganciclovir. […] After 24 days, the I.P. injected animals were sacrificed and evaluated. The optimal concentration for anti-tumor effect was similar whether the tumor was grown I.P. or S.C.
# [9] = test system: hepatitis D; details: cited from earlier work
# [10] = test system: hepatitis B; details: cited from earlier work
# [11] = test system: hepatitis C; details: six months after termination of treatment; cited from earlier work
# [12] = 6.25 μg/ml or 12.5 μg/ml, twice per day for four days
molecule,measurement,setting,value
Cc1cccc(Nc2cc(Cl)nc(SCC(=O)O)n2)c1C [WY 14643],blue cells in liver (background staining),"[1]; WY liver: mitogen, no vector",No blue cells
same,"blue cells in liver, periportally and on the periphery",[1]; group I: IP 500 μl of 15 mg/ml once per day for 4 days plus beta galactosidase vector,Numerous blue cells
same,"blue cells in liver, periportally and on the periphery",[1]; group II: gavage 200 μl of 15 mg/ml once per day for 4 days plus beta galactosidase vector,Numerous blue cells
Nc1nc(O)c2ncn(COC(CO)CO)c2n1 [ganciclovir],effect on cell growth,[2]; [12],did not have an effect
same,effect on cell growth,[2]; beginning at 25 ug/ml,dose-dependent decrease in cell growth
same,cytotoxic effect on CT26 TKneo cells,[3],dramatic cytotoxic effect
same,tumor size versus untreated mice,[4],somewhat smaller
same,tumor burden,[5],dramatic decrease in tumor burden
same,tolerability,"[6]; 15.63 mg/Kg, 31.25 mg/Kg and 62.5 mg/Kg groups, treated for an additional 7 days",able to tolerate the treatment
same,toxicity observed,[6]; 62.5 mg/Kg groups,not life threatening and reversible
same,survival (toxic effects),"[6]; 125 mg/Kg, 250 mg/Kg and 500 mg/Kg groups, 2 daily I.P. injections, after 5 days",dead due to the toxic effects
same,effect on cell growth,[7]; [12],did not have an effect
same,effect on cell growth,[7]; beginning at 25 ug/ml,dose-dependent decrease in cell growth
same,tumor regression,"[8]; 15.63 mg/Kg, compared to untreated control groups",Little or no effect
same,tumor regression,[8]; 31.25 mg/Kg,Partial tumor regression
same,tumor regression,"[8]; 62.5 mg/Kg regimen, 2 daily I.P. injections",Complete tumor regression
alpha interferon,responders relapsed,[9]; in vivo,85-90%
same,patients responding to therapy,[9]; pilot studies,25-60%
same,patients responding to treatment,[10]; patients infected as adults,about 35%
same,patients responding to treatment,[10]; perinatal infectees,about 10%
same,responders relapsed,[11],half

# Source: patent US6818439B1, “Methods for administration of recombinant gene delivery vehicles for treatment of hemophilia and other disorders” (priority 1994, dated 2004)
